Reference: PubChem BioAssay AID2061108 (Research group of Professor Matthew Todd, School of …, 2025)

Test system: red blood cell haemolysis
Test: microbial growth inhibition plus red cell haemolysis – Idler compounds, first plate, PMBN-permeabilized strains, profiling panel (AID 2061108)
Parameters: haemolysis: dose or concentration left out as unconfirmed
Settings: stronger effect = higher value; dose or concentration not given here

SMILES	haemolysis
N#Cc1c(NC[C@H]2CCCN2)nc2ccccc2c1C(F)(F)F	0.41%
C=CC(=O)N1CCCc2c(C(=O)O)cccc21	0.129%
CC(C)C(N)C(=O)NS(=O)(=O)c1cccc(-c2cc3ncnc(N)c3s2)c1 (stereo unspecified)	0.218%
Nc1ncnc2cc(-c3cccc(S(=O)(=O)NC(=O)C(N)Cc4ccccc4)c3)sc12 (stereo unspecified)	0.0594%
N#Cc1c(N2Cc3cccc(O)c3C2)nc2ccccc2c1C(F)(F)F	-0.139%
COc1ccc(/C=C(\C#N)S(=O)(=O)c2ccccc2)cc1OC	2.6%
Nc1ncnc2cc(-c3cccc(S(=O)(=O)NC(=O)C(N)CC(=O)O)c3)sc12 (stereo unspecified)	-0.194%
COc1cc2nc(N3CCC(N(C)C)C3)nc(N3CCN(C(=O)OC(C)(C)C)CC3)c2cc1OC (stereo unspecified)	0.172%
Cc1cccc(C)c1OCC(O)CSc1ccccn1 (stereo unspecified)	0.214%
CCC(C)NS(=O)(=O)CCCOc1ccc(F)cc1 (stereo unspecified)	-0.19%
O=c1[nH]c(=O)c2cc(S(=O)(=O)Nc3cc(F)c(N4CCC(N5CCOCC5)CC4)c(F)c3)ccc2[nH]1	0.307%
O=S(=O)(Nc1ccc(Oc2ccccc2)cc1)c1ccc(-c2nn[nH]n2)cc1	1.69%
CCCOc1cc(S(=O)(=O)n2cccn2)ccc1Br	0.858%
Nc1ncnc2cc(-c3cccc(S(N)(=O)=O)c3)sc12	-0.345%
FC(F)Oc1ccc(-c2nnc3cncc(OCCCC(F)(F)F)n23)cc1	0.0506%
Cc1ccc(N2CN(CC(=O)Nc3ccccc3Cl)S(=O)(=O)c3cccnc32)cc1	0.453%
O=C(Nc1ccc(Oc2ccccc2)cc1)c1ccc(-c2nn[nH]n2)nc1	-0.153%
O=C(Nc1cccc(C(F)(F)F)c1)C(Cl)C(=O)c1ccccc1 (stereo unspecified)	0.0983%
N#Cc1ccc(NC2Cc3cccc(O)c3C2)cc1C(F)(F)F (stereo unspecified)	2.84%
O=C(O)c1cc(-c2ccco2)on1	0.22%
O=C(N/N=C/c1cnc(C(F)(F)F)nc1)c1ccncc1	0.15%
COc1ccc2c(c1)nc(-c1ccc[nH]1)c1[nH]ccc12	0.0477%
N#CC1(c2cccc(-c3cccc4c3CCOC4C(=O)O)c2)CC1 (stereo unspecified)	0.0202%
Cc1ccn2c(=O)nc(SCC(=O)OCc3ccccc3)nc2c1	-0.0134%
O=C(c1ccccc1)c1ccc(NS(=O)(=O)c2cccc(Cl)c2)cc1	0.625%
O=S(=O)(NC1(Cc2ccc(Cl)cc2Cl)CCC1)c1ccc(-c2nn[nH]n2)cc1	-0.271%
O=c1[nH]c(=O)c2cc(S(=O)(=O)Nc3cc(F)c(NCCN4CCOCC4)c(F)c3)ccc2[nH]1	-0.0292%
O=C(Nc1ccc(Oc2ccccc2)cc1)c1cccc(-c2nn[nH]n2)c1	1.82%

Test system: A. baumannii ATCC 17978 + PMBN growth inhibition, 100 uM
Test: as above
Parameters: haemolysis: dose or concentration left out as unconfirmed
Settings: A. baumannii plus PMBN growth inhibition, 100 µM; stronger effect = higher value

SMILES	inhibition
N#Cc1c(NC[C@H]2CCCN2)nc2ccccc2c1C(F)(F)F	53.6%
C=CC(=O)N1CCCc2c(C(=O)O)cccc21	18.6%
CC(C)C(N)C(=O)NS(=O)(=O)c1cccc(-c2cc3ncnc(N)c3s2)c1 (stereo unspecified)	-10.9%
Nc1ncnc2cc(-c3cccc(S(=O)(=O)NC(=O)C(N)Cc4ccccc4)c3)sc12 (stereo unspecified)	3.19%
N#Cc1c(N2Cc3cccc(O)c3C2)nc2ccccc2c1C(F)(F)F	33.9%
COc1ccc(/C=C(\C#N)S(=O)(=O)c2ccccc2)cc1OC	12.6%
Nc1ncnc2cc(-c3cccc(S(=O)(=O)NC(=O)C(N)CC(=O)O)c3)sc12 (stereo unspecified)	9.86%
COc1cc2nc(N3CCC(N(C)C)C3)nc(N3CCN(C(=O)OC(C)(C)C)CC3)c2cc1OC (stereo unspecified)	29.6%
Cc1cccc(C)c1OCC(O)CSc1ccccn1 (stereo unspecified)	51.9%
CCC(C)NS(=O)(=O)CCCOc1ccc(F)cc1 (stereo unspecified)	28.8%
O=c1[nH]c(=O)c2cc(S(=O)(=O)Nc3cc(F)c(N4CCC(N5CCOCC5)CC4)c(F)c3)ccc2[nH]1	19.7%
O=S(=O)(Nc1ccc(Oc2ccccc2)cc1)c1ccc(-c2nn[nH]n2)cc1	34.1%
CCCOc1cc(S(=O)(=O)n2cccn2)ccc1Br	18.4%
Nc1ncnc2cc(-c3cccc(S(N)(=O)=O)c3)sc12	-11.6%
FC(F)Oc1ccc(-c2nnc3cncc(OCCCC(F)(F)F)n23)cc1	4.86%
Cc1ccc(N2CN(CC(=O)Nc3ccccc3Cl)S(=O)(=O)c3cccnc32)cc1	4.43%
O=C(Nc1ccc(Oc2ccccc2)cc1)c1ccc(-c2nn[nH]n2)nc1	15.2%
O=C(Nc1cccc(C(F)(F)F)c1)C(Cl)C(=O)c1ccccc1 (stereo unspecified)	99.6%
N#Cc1ccc(NC2Cc3cccc(O)c3C2)cc1C(F)(F)F (stereo unspecified)	100%
O=C(O)c1cc(-c2ccco2)on1	19.4%
O=C(N/N=C/c1cnc(C(F)(F)F)nc1)c1ccncc1	21.6%
COc1ccc2c(c1)nc(-c1ccc[nH]1)c1[nH]ccc12	101%
N#CC1(c2cccc(-c3cccc4c3CCOC4C(=O)O)c2)CC1 (stereo unspecified)	20.9%
Cc1ccn2c(=O)nc(SCC(=O)OCc3ccccc3)nc2c1	5.22%
O=C(c1ccccc1)c1ccc(NS(=O)(=O)c2cccc(Cl)c2)cc1	80.1%
O=S(=O)(NC1(Cc2ccc(Cl)cc2Cl)CCC1)c1ccc(-c2nn[nH]n2)cc1	65.8%
O=c1[nH]c(=O)c2cc(S(=O)(=O)Nc3cc(F)c(NCCN4CCOCC4)c(F)c3)ccc2[nH]1	12%
O=C(Nc1ccc(Oc2ccccc2)cc1)c1cccc(-c2nn[nH]n2)c1	18.8%

Test system: M. avium growth inhibition, 10 uM
Test: as above
Parameters: haemolysis: dose or concentration left out as unconfirmed
Settings: M. avium growth inhibition, 10 µM

SMILES	inhibition
N#Cc1c(NC[C@H]2CCCN2)nc2ccccc2c1C(F)(F)F	-0.31%
C=CC(=O)N1CCCc2c(C(=O)O)cccc21	0.285%
CC(C)C(N)C(=O)NS(=O)(=O)c1cccc(-c2cc3ncnc(N)c3s2)c1 (stereo unspecified)	16.2%
Nc1ncnc2cc(-c3cccc(S(=O)(=O)NC(=O)C(N)Cc4ccccc4)c3)sc12 (stereo unspecified)	11.7%
N#Cc1c(N2Cc3cccc(O)c3C2)nc2ccccc2c1C(F)(F)F	0.654%
COc1ccc(/C=C(\C#N)S(=O)(=O)c2ccccc2)cc1OC	-0.352%
Nc1ncnc2cc(-c3cccc(S(=O)(=O)NC(=O)C(N)CC(=O)O)c3)sc12 (stereo unspecified)	11.9%
COc1cc2nc(N3CCC(N(C)C)C3)nc(N3CCN(C(=O)OC(C)(C)C)CC3)c2cc1OC (stereo unspecified)	3.78%
Cc1cccc(C)c1OCC(O)CSc1ccccn1 (stereo unspecified)	-0.789%
CCC(C)NS(=O)(=O)CCCOc1ccc(F)cc1 (stereo unspecified)	-0.527%
O=c1[nH]c(=O)c2cc(S(=O)(=O)Nc3cc(F)c(N4CCC(N5CCOCC5)CC4)c(F)c3)ccc2[nH]1	0.48%
O=S(=O)(Nc1ccc(Oc2ccccc2)cc1)c1ccc(-c2nn[nH]n2)cc1	0.208%
CCCOc1cc(S(=O)(=O)n2cccn2)ccc1Br	-1.53%
Nc1ncnc2cc(-c3cccc(S(N)(=O)=O)c3)sc12	50.5%
FC(F)Oc1ccc(-c2nnc3cncc(OCCCC(F)(F)F)n23)cc1	-0.289%
Cc1ccc(N2CN(CC(=O)Nc3ccccc3Cl)S(=O)(=O)c3cccnc32)cc1	-1.53%
O=C(Nc1ccc(Oc2ccccc2)cc1)c1ccc(-c2nn[nH]n2)nc1	-0.673%
O=C(Nc1cccc(C(F)(F)F)c1)C(Cl)C(=O)c1ccccc1 (stereo unspecified)	1.13%
N#Cc1ccc(NC2Cc3cccc(O)c3C2)cc1C(F)(F)F (stereo unspecified)	-0.176%
O=C(O)c1cc(-c2ccco2)on1	-0.19%
O=C(N/N=C/c1cnc(C(F)(F)F)nc1)c1ccncc1	1.52%
COc1ccc2c(c1)nc(-c1ccc[nH]1)c1[nH]ccc12	1.82%
N#CC1(c2cccc(-c3cccc4c3CCOC4C(=O)O)c2)CC1 (stereo unspecified)	-1.43%
Cc1ccn2c(=O)nc(SCC(=O)OCc3ccccc3)nc2c1	-0.191%
O=C(c1ccccc1)c1ccc(NS(=O)(=O)c2cccc(Cl)c2)cc1	0.0647%
O=S(=O)(NC1(Cc2ccc(Cl)cc2Cl)CCC1)c1ccc(-c2nn[nH]n2)cc1	0.393%
O=c1[nH]c(=O)c2cc(S(=O)(=O)Nc3cc(F)c(NCCN4CCOCC4)c(F)c3)ccc2[nH]1	-0.106%
O=C(Nc1ccc(Oc2ccccc2)cc1)c1cccc(-c2nn[nH]n2)c1	0.254%

Test system: M. abscessus growth inhibition, 10 uM
Test: as above
Parameters: haemolysis: dose or concentration left out as unconfirmed
Settings: S. aureus ATCC 9144 growth inhibition; measured here: M. abscessus; at 10 µM

SMILES	inhibition
N#Cc1c(NC[C@H]2CCCN2)nc2ccccc2c1C(F)(F)F	-1.13%
C=CC(=O)N1CCCc2c(C(=O)O)cccc21	-0.114%
CC(C)C(N)C(=O)NS(=O)(=O)c1cccc(-c2cc3ncnc(N)c3s2)c1 (stereo unspecified)	-0.361%
Nc1ncnc2cc(-c3cccc(S(=O)(=O)NC(=O)C(N)Cc4ccccc4)c3)sc12 (stereo unspecified)	-0.63%
N#Cc1c(N2Cc3cccc(O)c3C2)nc2ccccc2c1C(F)(F)F	-1.26%
COc1ccc(/C=C(\C#N)S(=O)(=O)c2ccccc2)cc1OC	-0.905%
Nc1ncnc2cc(-c3cccc(S(=O)(=O)NC(=O)C(N)CC(=O)O)c3)sc12 (stereo unspecified)	-1.16%
COc1cc2nc(N3CCC(N(C)C)C3)nc(N3CCN(C(=O)OC(C)(C)C)CC3)c2cc1OC (stereo unspecified)	-0.0588%
Cc1cccc(C)c1OCC(O)CSc1ccccn1 (stereo unspecified)	-0.104%
CCC(C)NS(=O)(=O)CCCOc1ccc(F)cc1 (stereo unspecified)	-0.898%
O=c1[nH]c(=O)c2cc(S(=O)(=O)Nc3cc(F)c(N4CCC(N5CCOCC5)CC4)c(F)c3)ccc2[nH]1	-0.0703%
O=S(=O)(Nc1ccc(Oc2ccccc2)cc1)c1ccc(-c2nn[nH]n2)cc1	-0.359%
CCCOc1cc(S(=O)(=O)n2cccn2)ccc1Br	-0.42%
Nc1ncnc2cc(-c3cccc(S(N)(=O)=O)c3)sc12	0.72%
FC(F)Oc1ccc(-c2nnc3cncc(OCCCC(F)(F)F)n23)cc1	-0.237%
Cc1ccc(N2CN(CC(=O)Nc3ccccc3Cl)S(=O)(=O)c3cccnc32)cc1	0.131%
O=C(Nc1ccc(Oc2ccccc2)cc1)c1ccc(-c2nn[nH]n2)nc1	-0.682%
O=C(Nc1cccc(C(F)(F)F)c1)C(Cl)C(=O)c1ccccc1 (stereo unspecified)	0.0425%
N#Cc1ccc(NC2Cc3cccc(O)c3C2)cc1C(F)(F)F (stereo unspecified)	-0.648%
O=C(O)c1cc(-c2ccco2)on1	-0.23%
O=C(N/N=C/c1cnc(C(F)(F)F)nc1)c1ccncc1	0.125%
COc1ccc2c(c1)nc(-c1ccc[nH]1)c1[nH]ccc12	0.154%
N#CC1(c2cccc(-c3cccc4c3CCOC4C(=O)O)c2)CC1 (stereo unspecified)	0.107%
Cc1ccn2c(=O)nc(SCC(=O)OCc3ccccc3)nc2c1	-0.803%
O=C(c1ccccc1)c1ccc(NS(=O)(=O)c2cccc(Cl)c2)cc1	-0.368%
O=S(=O)(NC1(Cc2ccc(Cl)cc2Cl)CCC1)c1ccc(-c2nn[nH]n2)cc1	-1.11%
O=c1[nH]c(=O)c2cc(S(=O)(=O)Nc3cc(F)c(NCCN4CCOCC4)c(F)c3)ccc2[nH]1	-0.977%
O=C(Nc1ccc(Oc2ccccc2)cc1)c1cccc(-c2nn[nH]n2)c1	-0.704%

Test system: A. baumannii ATCC 17978 growth inhibition, 100 uM
Test: as above
Parameters: haemolysis: dose or concentration left out as unconfirmed
Settings: S. aureus ATCC 9144 growth inhibition; measured here: A. baumannii ATCC 17978; at 100 µM; stronger effect = higher value

SMILES	inhibition
N#Cc1c(NC[C@H]2CCCN2)nc2ccccc2c1C(F)(F)F	9.76%
C=CC(=O)N1CCCc2c(C(=O)O)cccc21	-1.2%
CC(C)C(N)C(=O)NS(=O)(=O)c1cccc(-c2cc3ncnc(N)c3s2)c1 (stereo unspecified)	-15.1%
Nc1ncnc2cc(-c3cccc(S(=O)(=O)NC(=O)C(N)Cc4ccccc4)c3)sc12 (stereo unspecified)	1.55%
N#Cc1c(N2Cc3cccc(O)c3C2)nc2ccccc2c1C(F)(F)F	23.8%
COc1ccc(/C=C(\C#N)S(=O)(=O)c2ccccc2)cc1OC	0.595%
Nc1ncnc2cc(-c3cccc(S(=O)(=O)NC(=O)C(N)CC(=O)O)c3)sc12 (stereo unspecified)	-7.14%
COc1cc2nc(N3CCC(N(C)C)C3)nc(N3CCN(C(=O)OC(C)(C)C)CC3)c2cc1OC (stereo unspecified)	-7.35%
Cc1cccc(C)c1OCC(O)CSc1ccccn1 (stereo unspecified)	11.9%
CCC(C)NS(=O)(=O)CCCOc1ccc(F)cc1 (stereo unspecified)	-4.88%
O=c1[nH]c(=O)c2cc(S(=O)(=O)Nc3cc(F)c(N4CCC(N5CCOCC5)CC4)c(F)c3)ccc2[nH]1	4.34%
O=S(=O)(Nc1ccc(Oc2ccccc2)cc1)c1ccc(-c2nn[nH]n2)cc1	-18.3%
CCCOc1cc(S(=O)(=O)n2cccn2)ccc1Br	-7.35%
Nc1ncnc2cc(-c3cccc(S(N)(=O)=O)c3)sc12	-9.52%
